Measured values: patent US11180496B2 (Daewoong Pharmaceutical Co., Ltd., priority 2017, dated 2021)

Experiments:
BTK = target: T1, BTK (Homo sapiens, UniProt Q06187); assay: BTK inhibitory activity, ADP-Glo + BTK Kinase enzyme system kit (Promega); type: biochemical; conditions: BTK enzyme 1 ng/uL, ATP 10 uM, 15 min preincubation, luminescence, duplicate
T1 construct: purchased Promega
Description: (§1) The inhibitory activity against BTK and ITK of the compounds prepared in Examples above were measured as follows.
(§2) The inhibitory activity against BTK was evaluated using ‘ADP-Glo™+BTK Kinase enzyme system’ kit from Promega. […] 5 uL of substrate and 5 uL of ATP prepared at a final concentration of 10 uM were added to all wells of the plate after completion of the reaction, and allowed to react at 30° C. for 1 hour. All wells of the plate after completion of the reaction were treated with 25 uL of ADP-Glo™ reagent and reacted at 30° C. for 40 minutes. Then, 50 uL of the kinase detection buffer was applied to all wells of the plate, and then the light was blocked and reacted at 30° C. for 30 minutes. For the plate for which all reactions were completed, the luminescence was measured and the results were calculated. The evaluation was performed in duplicate. The respective values of negative and positive controls, depending on whether the enzymes were added without treatment of the compound, were determined, and IC50 was calculated based on the values.

ITK = target: T2, ITK (Homo sapiens, UniProt Q08881); assay: ITK inhibitory activity, ADP-Glo + ITK Kinase enzyme system kit (Promega); type: biochemical; conditions: ITK enzyme 0.4 ng/uL, ATP 25 uM, 15 min preincubation, luminescence, duplicate
T2 construct: purchased Promega
T2 sequence (Q08881 1-620): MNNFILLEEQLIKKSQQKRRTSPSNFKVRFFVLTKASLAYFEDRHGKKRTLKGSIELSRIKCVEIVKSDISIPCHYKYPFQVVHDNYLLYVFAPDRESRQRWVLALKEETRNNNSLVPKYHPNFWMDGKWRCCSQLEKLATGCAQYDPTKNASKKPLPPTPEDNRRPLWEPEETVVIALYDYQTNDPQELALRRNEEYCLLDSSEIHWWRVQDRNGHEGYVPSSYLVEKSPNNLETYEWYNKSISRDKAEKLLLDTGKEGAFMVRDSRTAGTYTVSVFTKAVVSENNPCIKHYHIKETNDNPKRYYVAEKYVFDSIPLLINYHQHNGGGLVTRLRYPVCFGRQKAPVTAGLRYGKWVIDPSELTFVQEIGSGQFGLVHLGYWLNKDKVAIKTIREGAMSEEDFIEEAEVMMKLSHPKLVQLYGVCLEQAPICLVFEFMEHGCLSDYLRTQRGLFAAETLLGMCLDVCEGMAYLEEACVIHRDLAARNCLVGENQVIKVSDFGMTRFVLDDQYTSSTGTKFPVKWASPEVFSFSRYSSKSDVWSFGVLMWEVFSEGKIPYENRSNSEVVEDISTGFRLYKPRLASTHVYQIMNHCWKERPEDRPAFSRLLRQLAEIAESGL
Description: as §1
as §2, with “ITK” for “BTK”, “‘ADP-Glo™+ITK” for “‘ADP-Glo™+BTK”, “25” for “10”

T1 sequence (Q06187 whole entry): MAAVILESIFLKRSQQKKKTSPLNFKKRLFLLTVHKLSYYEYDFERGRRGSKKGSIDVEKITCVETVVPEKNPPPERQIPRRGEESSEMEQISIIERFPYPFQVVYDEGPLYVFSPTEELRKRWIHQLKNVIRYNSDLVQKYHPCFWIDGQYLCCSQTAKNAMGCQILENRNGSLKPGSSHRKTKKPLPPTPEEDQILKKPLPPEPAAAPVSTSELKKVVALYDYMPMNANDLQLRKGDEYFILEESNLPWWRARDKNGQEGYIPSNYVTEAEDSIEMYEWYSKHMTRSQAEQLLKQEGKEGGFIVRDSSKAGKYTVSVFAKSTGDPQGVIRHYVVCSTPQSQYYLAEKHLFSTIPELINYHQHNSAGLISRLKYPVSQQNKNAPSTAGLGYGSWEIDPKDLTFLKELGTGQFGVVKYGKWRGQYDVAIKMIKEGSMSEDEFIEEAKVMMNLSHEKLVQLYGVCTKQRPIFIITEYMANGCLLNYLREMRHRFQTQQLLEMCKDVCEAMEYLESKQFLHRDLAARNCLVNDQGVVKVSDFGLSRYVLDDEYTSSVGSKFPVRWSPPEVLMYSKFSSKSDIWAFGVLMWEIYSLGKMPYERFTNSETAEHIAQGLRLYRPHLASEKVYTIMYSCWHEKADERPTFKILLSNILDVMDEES

Row | IC50 (BTK) [nM] | IC50 (ITK) [nM] | Structure (SMILES)
1 | 180 | > 1000 | C=CC(=O)N1CC[C@H](n2nc(-c3ccc(C(=O)Nc4ccccc4)cc3)c3c(N)nccc32)C1 [Example 47, (S)-4-(1-(1-acryloylpyrrolidin-3-yl)-4-amino-1H-pyrazolo[4,3-c]pyridin-3-yl)-N-phenylbenzamide]
2 | > 400 | > 1000 | CC#CC(=O)N1CC[C@H](n2nc(-c3ccc(C(=O)Nc4ccccc4)cc3)c3c(N)nccc32)C1 [Example 48, (S)-4-(4-amino-1-(1-but-2-ynoylpyrrolidin-3-yl)-1H-pyrazolo[4,3-c]pyridin-3-yl)-N-phenylbenzamide]
3 | 1.2 | 3.3 | C=CC(=O)N1CCC[C@@H](n2nc(-c3ccc(C(=O)Nc4ccccn4)cc3F)c3c(N)ncc(Cl)c32)C1 [Example 49, (R)-4-(1-(1-acryloylpiperidin-3-yl)-4-amino-7-chloro-1H-pyrazolo[4,3-c]pyridin-3-yl)-3-fluoro-N-(pyridin-2-yl)benzamide]
4 | 1.3 | 2.1 | C=CC(=O)N1CCC[C@@H](n2nc(-c3ccc(C(=O)Nc4ccccn4)cc3F)c3c(N)ncc(I)c32)C1 [Example 50, (R)-4-(1-(1-acryloylpiperidin-3-yl)-4-amino-7-iodo-1H-pyrazolo[4,3-c]pyridin-3-yl)-3-fluoro-N-(pyridin-2-yl)benzamide]
5 | 0.5 | 30.8 | C=CC(=O)N1CC2CC1[C@H](n1nc(-c3ccc(C(=O)Nc4ccccn4)cc3F)c3c(N)nccc31)C2 (stereo partly drawn) [Example 51, 4-(1-((6R)-2-acryloyl-2-azabicyclo[2.2.1]heptan-6-yl)-4-amino-1H-pyrazolo[4,3-c]pyridin-3-yl)-3-fluoro-N-(pyridin-2-yl)benzamide]
6 | 1.6 | 51.6 | C=CC(=O)N1CC(n2nc(-c3ccc(C(=O)Nc4ccccn4)cc3F)c3c(N)nccc32)C1 [Example 52]
7 | 0.5 | 4.3 | C=CC(=O)N1CCC[C@@H](n2nc(-c3ccc(C(=O)Nc4ccccn4)cc3F)c3c(N)ncc(C#N)c32)C1 [Example 53, (R)-4-(1-(1-acryloylpiperidin-3-yl)-4-amino-7-cyano-1H-pyrazolo[4,3-c]pyridin-3-yl)-3-fluoro-N-(pyridin-2-yl)benzamide]
8 | 77.5 | > 1000 | C=C(C)C(=O)N1CCC[C@@H](n2nc(-c3ccc(C(=O)Nc4ccccn4)cc3F)c3c(N)nccc32)C1 [Example 54, (R)-4-(4-amino-1-(1-methacryloylpiperidin-3-yl)-1H-pyrazolo[4,3-c]pyridin-3-yl)-3-fluoro-N-(pyridin-2-yl)benzamide]
9 | 6.4 | 124 | C=C(C)C(=O)N1CCC[C@@H](n2nc(-c3ccc(C(=O)Nc4ccccn4)cc3F)c3c(N)ncc(Cl)c32)C1 [Example 55, (R)-4-(4-amino-7-chloro-1-(1-methacryloylpiperidin-3-yl)-1H-pyrazolo[4,3-c]pyridin-3-yl)-3-fluoro-N-(pyridin-2-yl)benzamide]
10 | 0.4 | 0.6 | C=CC(=O)N1CCC[C@@H](n2nc(-c3ccc(C(=O)Nc4ccccn4)cc3Cl)c3c(N)nccc32)C1 [Example 56, (R)-4-(1-(1-acryloylpiperidin-3-yl)-4-amino-1H-pyrazolo[4,3-c]pyridin-3-yl)-3-chloro-N-(pyridin-2-yl)benzamide]
11 | 0.5 | 11.4 | C=CC(=O)N1CCC[C@@H](n2nc(-c3ccc(C(=O)Nc4ccccn4)cc3OC)c3c(N)nccc32)C1 [Example 57, (R)-4-(1-(1-acryloylpiperidin-3-yl)-4-amino-1H-pyrazolo[4,3-c]pyridin-3-yl)-3-methoxy-N-(pyridin-2-yl)benzamide]
12 | 8.8 | 9.3 | C=CC(=O)N1CCC[C@@H](n2nc(-c3ccc(C(=O)Nc4ccccn4)cc3Cl)c3c(N)ncc(Cl)c32)C1 [Example 58, (R)-4-(1-(1-acryloylpiperidin-3-yl)-4-amino-7-chloro-1H-pyrazolo[4,3-c]pyridin-3-yl)-3-chloro-N-(pyridin-2-yl)benzamide]
13 | 3.7 | 26 | C=CC(=O)N1CCC[C@@H](n2nc(-c3ccc(C(=O)Nc4ccccn4)cc3OC)c3c(N)ncc(Cl)c32)C1 [Example 59, (R)-4-(1-(1-acryloylpiperidin-3-yl)-4-amino-7-chloro-1H-pyrazolo[4,3-c]pyridin-3-yl)-3-methoxy-N-(pyridin-2-yl)benzamide]
14 | 0.4 | 263 | C=CC(=O)N1CC(n2nc(-c3ccc(C(=O)Nc4ccccn4)cc3F)c3c(N)ncc(Cl)c32)C1 [Example 60, 4-(1-(1-acryloylazetidin-3-yl)-4-amino-7-chloro-1H-pyrazolo[4,3-c]pyridin-3-yl)-3-fluoro-N-(pyridin-2-yl)benzamide]
15 | 187 | > 1000 | C=CC(=O)N1CCC[C@@H](n2nc(Nc3cnn(C4CC4)c3)c3c(N)nccc32)C1 [Example 61, (R)-1-(3-(4-amino-3-(1-cyclopropyl-1H-pyrazol-4-ylamino)-1H-pyrazolo[4,3-c]pyridin-1-yl)piperidin-1-yl)prop-2-en-1-one]
16 | 6.3 | 8.1 | C=CC(=O)N1CCC[C@@H](n2nc(Br)c3c(N)nccc32)C1 [Example 62, (R)-1-(3-(4-amino-3-bromo-1H-pyrazolo[4,3-c]pyridin-1-yl)piperidin-1-yl)prop-2-en-1-one]
17 | 3.1 | 30.1 | C=CC(=O)N1CC(n2nc(-c3ccc(C(=O)Nc4ccccn4)cc3Cl)c3c(N)nccc32)C1 [Example 63, 4-(1-(1-acryloylazetidin-3-yl)-4-amino-1H-pyrazolo[4,3-c]pyridin-3-yl)-3-chloro-N-(pyridin-2-yl)benzamide]
18 | 1.1 | 22.5 | C=CC(=O)N1CC(n2nc(-c3ccc(C(=O)Nc4ccccn4)cc3Cl)c3c(N)ncc(Cl)c32)C1 [Example 64, 4-(1-(1-acryloylazetidin-3-yl)-4-amino-7-chloro-1H-pyrazolo[4,3-c]pyridin-3-yl)-3-chloro-N-(pyridin-2-yl)benzamide]
19 | 0.4 | 1.3 | C=CC(=O)N1CCC[C@@H](n2nc(-c3ccc(C(=O)Nc4ccccn4)cc3Cl)c3c(N)ncc(I)c32)C1 [Example 65, (R)-4-(1-(1-acryloylpiperidin-3-yl)-4-amino-7-iodo-1H-pyrazolo[4,3-c]pyridin-3-yl)-3-chloro-N-(pyridin-2-yl)benzamide]
20 | 1.3 | 1.3 | C=CC(=O)N1CCC[C@@H](n2nc(-c3ccc(C(=O)Nc4ccccn4)cc3Cl)c3c(N)ncc(C#N)c32)C1 [Example 66, (R)-4-(1-(1-acryloylpiperidin-3-yl)-4-amino-7-cyano-1H-pyrazolo[4,3-c]pyridin-3-yl)-3-chloro-N-(pyridin-2-yl)benzamide]
21 | 2 | 2.7 | C=CC(=O)N1CCC[C@@H](n2nc(-c3ccc(C(=O)Nc4ccccn4)cc3Cl)c3c(N)ncc(-c4cnn(C)c4)c32)C1 [Example 67, (R)-4-(1-(1-acryloylpiperidin-3-yl)-4-amino-7-(1-methyl-1H-pyrazol-4-yl)-1H-pyrazolo[4,3-c]pyridin-3-yl)-3-chloro-N-(pyridin-2-yl)benzamide]
22 | 0.9 | 1.7 | C=CC(=O)N1CCC[C@@H](n2nc(-c3ccc(C(=O)Nc4ccccn4)cc3Cl)c3c(N)ncc(CC)c32)C1 [Example 68, (R)-4-(1-(1-acryloylpiperidin-3-yl)-4-amino-7-ethyl-1H-pyrazolo[4,3-c]pyridin-3-yl)-3-chloro-N-(pyridin-2-yl)benzamide]
